From patent US12344595B2, “2-amino-n-phenyl-nicotinamides as NAV1.8 inhibitors” (Merck Sharp & Dohme LLC, priority 2018, dated 2025) come the findings set out here.

The term IC50 denotes the concentration at which inhibition is half-maximal. A low value points to greater potency.

Chain of human Nav1.8 (Q9Y5Y9 whole entry): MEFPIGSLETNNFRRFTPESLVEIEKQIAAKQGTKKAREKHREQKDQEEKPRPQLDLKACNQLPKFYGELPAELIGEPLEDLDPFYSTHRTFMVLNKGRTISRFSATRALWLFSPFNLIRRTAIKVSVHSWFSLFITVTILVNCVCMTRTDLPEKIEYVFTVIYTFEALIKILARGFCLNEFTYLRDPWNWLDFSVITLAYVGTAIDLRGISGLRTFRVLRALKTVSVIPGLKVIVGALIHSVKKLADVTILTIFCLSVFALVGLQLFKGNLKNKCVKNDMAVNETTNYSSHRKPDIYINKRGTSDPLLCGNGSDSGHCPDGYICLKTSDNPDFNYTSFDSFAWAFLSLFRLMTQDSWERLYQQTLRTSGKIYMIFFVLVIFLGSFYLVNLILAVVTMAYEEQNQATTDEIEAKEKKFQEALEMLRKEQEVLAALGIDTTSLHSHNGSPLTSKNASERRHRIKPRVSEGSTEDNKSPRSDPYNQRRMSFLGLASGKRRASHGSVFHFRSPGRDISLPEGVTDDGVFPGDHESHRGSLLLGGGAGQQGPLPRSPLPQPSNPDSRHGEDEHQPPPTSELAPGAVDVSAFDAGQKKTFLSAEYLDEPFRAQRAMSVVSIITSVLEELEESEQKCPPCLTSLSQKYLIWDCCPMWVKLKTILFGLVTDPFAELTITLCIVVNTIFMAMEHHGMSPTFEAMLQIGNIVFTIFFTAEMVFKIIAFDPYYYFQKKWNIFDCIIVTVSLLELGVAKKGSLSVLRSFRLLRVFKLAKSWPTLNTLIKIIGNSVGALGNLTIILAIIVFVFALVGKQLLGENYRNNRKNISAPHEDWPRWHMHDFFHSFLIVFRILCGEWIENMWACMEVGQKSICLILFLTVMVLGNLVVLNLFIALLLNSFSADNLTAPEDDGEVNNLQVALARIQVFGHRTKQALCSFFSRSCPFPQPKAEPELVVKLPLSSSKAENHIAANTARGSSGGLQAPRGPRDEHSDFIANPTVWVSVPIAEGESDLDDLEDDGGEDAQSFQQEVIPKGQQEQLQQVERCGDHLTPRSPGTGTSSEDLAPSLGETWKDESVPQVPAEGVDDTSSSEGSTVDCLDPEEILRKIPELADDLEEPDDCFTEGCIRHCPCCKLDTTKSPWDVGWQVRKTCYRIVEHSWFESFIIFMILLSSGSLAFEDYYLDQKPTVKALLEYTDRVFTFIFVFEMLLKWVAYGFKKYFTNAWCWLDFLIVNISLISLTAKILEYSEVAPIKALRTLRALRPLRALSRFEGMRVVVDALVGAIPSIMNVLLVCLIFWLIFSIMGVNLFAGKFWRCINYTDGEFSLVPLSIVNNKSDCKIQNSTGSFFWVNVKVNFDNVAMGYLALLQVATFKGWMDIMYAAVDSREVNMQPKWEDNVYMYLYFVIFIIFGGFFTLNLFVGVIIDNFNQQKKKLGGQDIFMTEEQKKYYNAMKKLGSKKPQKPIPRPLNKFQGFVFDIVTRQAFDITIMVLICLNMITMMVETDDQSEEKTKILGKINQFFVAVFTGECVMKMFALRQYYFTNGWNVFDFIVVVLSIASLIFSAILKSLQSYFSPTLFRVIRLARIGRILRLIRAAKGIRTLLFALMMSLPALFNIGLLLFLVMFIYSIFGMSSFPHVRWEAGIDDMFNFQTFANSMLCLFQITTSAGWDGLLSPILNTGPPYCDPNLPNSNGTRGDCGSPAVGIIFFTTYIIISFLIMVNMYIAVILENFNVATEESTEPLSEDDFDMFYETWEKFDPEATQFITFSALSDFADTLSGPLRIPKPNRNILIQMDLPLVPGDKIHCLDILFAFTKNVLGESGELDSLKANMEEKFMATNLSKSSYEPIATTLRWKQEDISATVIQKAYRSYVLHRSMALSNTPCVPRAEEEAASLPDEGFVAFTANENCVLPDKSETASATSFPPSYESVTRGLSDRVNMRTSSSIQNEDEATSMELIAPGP

The test has as its target human Nav1.8 (Homo sapiens (Human), UniProt Q9Y5Y9). As to the kind of experiment: Nav1.8 Qube automated patch-clamp assay. Type of test: cell-based. The conditions noted are these: Nav1.8 Qube Assay; human Nav1.8 channels stably expressed in HEK 293 cells. In outline: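 Whole-cell automated patch clamp was run at room temperature on HEK293 cells stably expressing the channel. A 1 Hz, 10 s train of 20 ms pulses to 10 mV from −90 mV (repolarizing to −67 mV) was applied. Peak currents at the 1st and 10th pulses gave resting and inactivated-state IC50 values by Hill fit.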
Regarding `C[C@@H]1CN(c2ncc(C(F)(F)F)cc2C(=O)Nc2ccc3c(c2)S(=O)(=O)NC3)C[C@H](C)C1(F)F` [Example 111, 2-[(3S,5R)-4,4-difluoro-3,5-dimethyl-1-piperidyl]-N-(1,1-dioxo-2,3-dihydro-1,2-benzothiazol-6-yl)-5-(trifluoromethyl) pyridine-3-carboxamide], 63 nM corresponded to half-maximal inhibition (IC50).
Under `NS(=O)(=O)c1cccc(NC(=O)c2cc(Cl)cnc2N2CCCCCC2)c1` [Example 31, 2-(azepan-1-yl)-5-chloro-N-(3-sulfamoyl-phenyl)pyridine-3-carboxamide] stands 22 nM.
Under `NS(=O)(=O)c1cccc(NC(=O)c2cc(C(F)(F)F)cnc2N2CC3CC(F)(F)C3C2)c1` (single isomer, unassigned) [Example 136, 2-[(1R,5S or 1S,5R)-6,6-difluoro-3-azabicyclo[3.2.0]heptan-3-yl]-N-(3-sulfamoyl-phenyl)-5-(trifluoromethyl)-pyridine-3-carboxamide] stands 87 nM; under `NS(=O)(=O)c1cccc(NC(=O)c2cc(C(F)(F)F)cnc2N2CCS(=O)(=O)CC2)c1` [Example 70, 2-(1,1-dioxo-1,4-thiazinan-4-yl)-N-(3-sulfamoylphenyl)-5-(trifluoromethyl)pyridine-3-carboxamide], 5480 nM; under `NS(=O)(=O)c1cccc(NC(=O)c2cc(C(F)(F)F)cnc2N2CCCC(O)CC2)c1` (stereo not drawn) [Example 65, 2-(4-hydroxyazepan-1-yl)-N-(3-sulfamoyl-phenyl)-5-(trifluoro-methyl)pyridine-3-carboxamide], 2210 nM.
Under `Cc1ccnc(N2CCCCCC2)c1C(=O)Nc1cccc(S(N)(=O)=O)c1` [Example 175, 2-(azepan-1-yl)-4-methyl-N-(3-sulfamoyl-phenyl)pyridine-3-carboxamide] stands 290 nM.
The molecule `CS(=O)(=O)c1cccc(NC(=O)c2cc(C(F)(F)F)cnc2N2CCC(F)(F)CC2)c1` [Example 152, 2-(4,4-difluoropiperidin-1-yl)-N-(3-(methylsulfonyl)phenyl)-5-(trifluoromethyl)nicotinamide] yielded an IC50 of 67 nM.
Under `COC(=O)C1CCN(c2ncc(C(F)(F)F)cc2C(=O)Nc2cccc(S(N)(=O)=O)c2)CC1` [Example 61, methyl 1-[3-[(3-sulfamoylphenyl)carbamoyl]-5-(trifluoro-methyl)-2-pyridyl]-piperidine-4-carboxylate] stands 1620 nM.
Under `O=C(Nc1cccc(S(=O)(=O)Nc2ccncn2)c1)c1cc(C(F)(F)F)cnc1N1CCCCCC1` [Example 151, 2-(azepan-1-yl)-3-((3-(N-(pyrimidin-4-yl)sulfamoyl)phenyl)carbamoyl)-5-(trifluoromethyl)pyridin-1-ium] stands 687 nM; under `Cc1nc(N2CCC(F)(F)CC2)c(C(=O)Nc2cccc(C#N)c2)c(C)c1Cl` [Example 20, 5-chloro-N-(3-cyanophenyl)-2-(4,4-difluoro-1-piperidyl)-4,6-dimethyl-pyridine-3-carboxamide], 74 nM.
Under `NS(=O)(=O)c1cccc(NC(=O)c2ccc(F)nc2N2CCCCCC2)c1` [Example 93, 2-(azepan-1-yl)-6-fluoro-N-(3-sulfamoyl-phenyl)pyridine-3-carboxamide] stands 59 nM.
Molecule `Cc1cc(Cl)c(C(=O)Nc2cccc(S(N)(=O)=O)c2)c(N2CCCCCC2)n1` [Example 158, 2-(azepan-1-yl)-4-chloro-6-methyl-N-(3-sulfamoylphenyl)-pyridine-3-carboxamide] yielded an IC50 of 910 nM.
Under `CS(=O)(=O)c1cccc(NC(=O)c2cc(C(F)(F)F)cnc2N2CCCC(F)(F)CC2)c1` [Example 94, 2-(4,4-difluoroazepan-1-yl)-N-(3-methylsulfonylphenyl)-5-(trifluoromethyl)-pyridine-3-carboxamide] stands 8.4 nM; under `CC1CN(c2ncc(C(F)(F)F)cc2C(=O)Nc2cccc(S(N)(=O)=O)c2)CC(C)O1` (single isomer, unassigned) [Example 149, 2-[(2R,6S or 2S,6R)-2,6-dimethylmorpholin-4-yl]-N-(3-sulfamoylphenyl)-5-(trifluoromethyl) pyridine-3-carboxamide], 351 nM; under `Cc1nc(N2CCC3(CC2)CC3)c(C(=O)Nc2cccc(C(N)=O)c2)c(C)c1Cl` [Example 13, 2-(6-azaspiro[2.5]-octan-6-yl)-N-(3-carbamoyl-phenyl)-5-chloro-4,6-dimethyl-pyridine-3-carboxamide], 13 nM.
Under `C[C@@H]1CN(c2ncc(C(F)(F)F)cc2C(=O)Nc2cccc(S(N)(=O)=O)c2)C[C@@H](C(F)(F)F)O1` [Example 146, 2-[(2R,6S)-2-methyl-6-(trifluoromethyl)morpholin-4-yl]-N-(3-sulfamoylphenyl)-5-(trifluoromethyl) pyridine-3-carboxamide] stands 26 nM.
Under `CS(=O)(=O)c1cccc(NC(=O)c2cc(C(F)(F)F)cnc2N2CCC(c3ccccc3)CC2)c1` [Example 105, N-(3-methylsulfonylphenyl)-2-(4-phenyl-1-piperidyl)-5-(trifluoro-methyl)pyridine-3-carboxamide] stands 8720 nM; under `NC(=O)c1cccc(NC(=O)c2cc(C(F)(F)F)cnc2N2CC3CCC(F)(F)C3C2)c1` (stereo not drawn) [Example 108, N-(3-carbamoylphenyl)-2-(4,4-difluoro-1,3,3a,- 5,6,6a-hexahydrocyclo-penta[c]pyrrol-2-yl)-5-(trifluoromethyl)-pyridine-3-carboxamide], 148 nM.
In the case of `COc1ccc(C(=O)Nc2cccc(S(C)(=O)=O)c2)c(N2CCCC(F)(F)CC2)n1` [Example 11, 2-(4,4-difluoroazepan-1-yl)-6-methoxy-N-(3-methylsulfonylphenyl) pyridine-3-carboxamide], the IC50 amounted to 31 nM. Against the preceding molecule, the IC50 is about 4.8-fold lower.
Under `O=C(Nc1ccc2c(c1)S(=O)(=O)NC2)c1cc(C(F)(F)F)cnc1N1CCCCCC1` [Example 121, 2-(azepan-1-yl)-N-(1,1-dioxo-2,3-dihydro-1,2-benzothiazol-6-yl)-5-(trifluoromethyl)-pyridine-3-carboxamide] stands 189 nM; under `CC(C)(C)c1nc(N2CCCCC2)c(C(=O)Nc2cccc(S(N)(=O)=O)c2)cc1Cl` [Example 40, 6-(tert-butyl)-5-chloro-2-(piperidin-1-yl)-N-(3-sulfamoylphenyl)nicotinamide], 1180 nM.
As to `NC(=O)c1cccc(NC(=O)c2ccc(Cl)nc2N2CCCC(F)(F)CC2)c1` [Example 14, N-(3-carbamoyl-phenyl)-6-chloro-2-(4,4-difluoroazepan-1-yl)pyridine-3-carboxamide], the IC50 stood at 18 nM. This IC50 lies about 66-fold lower than the previous one.
Under `Cc1c(Cl)nc(N2CCCCCC2)c(C(=O)Nc2cccc(S(N)(=O)=O)c2)c1C` [Example 174, 2-(azepan-1-yl)-6-chloro-4,5-dimethyl-N-(3-sulfamoylphenyl)-pyridine-3-carboxamide] stands 6 nM; under `N#Cc1cccc(NC(=O)c2cc(C(F)(F)F)cnc2N2CCCCCC2)c1` [Example 21, 2-(azepan-1-yl)-N-(3-cyanophenyl)-5-(trifluoromethyl)pyridine-3-carboxamide], 254 nM; under `Cc1nc2c(o1)CCN(c1ncc(C(F)(F)F)cc1C(=O)Nc1cccc(S(N)(=O)=O)c1)C2` [Example 73, 2-(2-methyl-6,7-dihydro-4H-oxazolo[4,5-c]pyridin-5-yl)-N-(3-sulfamoyl-phenyl)-5-(trifluoro-methyl)pyridine-3-carboxamide], 8390 nM.
Under `NS(=O)(=O)c1cccc(NC(=O)c2cc(C(F)(F)F)cnc2N2CCC(C(F)F)CC2)c1` [Example 50, 2-[4-(difluoromethyl)-1-piperidyl]-N-(3-sulfamoylphenyl)-5-(trifluoromethyl)-pyridine-3-carboxamide] stands 239 nM; under `NS(=O)(=O)c1cccc(NC(=O)c2cc(C(F)(F)F)cnc2N2CCC(F)(F)CC2)c1F` [Example 170, 2-(4,4-difluoropiperidin-1-yl)-N-(2-fluoro-3-sulfamoylphenyl)-5-(trifluoromethyl)nicotinamide], 119 nM.
For `Cc1ccc(C(=O)Nc2cccc(S(N)(=O)=O)c2)c(N2CCCCCC2)n1` [Example 90, 2-(azepan-1-yl)-6-methyl-N-(3-sulfamoyl-phenyl)pyridine-3-carboxamide], the IC50 turned out to be 17 nM. This IC50 is about 7-fold lower than that of the molecule before.
The molecule `NS(=O)(=O)c1cccc(NC(=O)c2cc(C(F)(F)F)cnc2N2CC3CCC3(C(F)(F)F)C2)c1` (single isomer, unassigned) [Example 130, N-(3-sulfamoylphenyl)-5-(trifluoromethyl)-2-[(1R,5R or 1S,5S)-1-(trifluoromethyl)-3-azabicyclo[3.2.0]heptan-3-yl]pyridine-3-carboxamide] yielded an IC50 of 16 nM.
The molecule `NS(=O)(=O)c1ccc(O)c(NC(=O)c2cc(C(F)(F)F)cnc2N2CCCCCC2)c1` [Example 25, 2-(azepan-1-yl)-N-(2-hydroxy-5-sulfamoyl-phenyl)-5-(trifluoro-methyl)pyridine-3-carboxamide] showed an IC50 of 337 nM.
Under `NS(=O)(=O)c1cccc(NC(=O)c2cc(C(F)(F)F)cnc2N2CC3CC2CC3(F)F)c1` (single isomer, unassigned) [Example 138, 2-[(1R,4R or 1S,4S)-5,5-difluoro-2-azabicyclo-[2.2.1]heptan-2-yl]-N-(3-sulfamoylphenyl)-5-(trifluoromethyl)-pyridine-3-carboxamide] stands 881 nM; under `NS(=O)(=O)c1cccc(NC(=O)c2cc(C(F)(F)F)cnc2N2CCCCCCC2)c1` [Example 88, 2-(azocan-1-yl)-N-(3-sulfamoylphenyl)-5-(trifluoromethyl)-pyridine-3-carboxamide], 6 nM; under `CC12CCN(c3ncc(C(F)(F)F)cc3C(=O)Nc3cccc(S(N)(=O)=O)c3)CC1C2(F)F` (single isomer, unassigned) [Example 129, 2-[(1S,6S or 1R,6R)-7,7-difluoro-6-methyl-3-azabicyclo[4.1.0]heptan-3-yl]-N-(3-sulfamoyl-phenyl)-5-(trifluoro-methyl)pyridine-3-carboxamide], 63 nM.
